The record followed here is ChEMBL document CHEMBL1152778, “Design, synthesis, and biological evaluation of (2R,alphaS)-3,4-dihydro-2-[3-(1,1,2,2-tetrafluoroethoxy)phenyl]-5-[3-(trifluoromethoxy)-phenyl]-alpha-(trifluoromethyl)-1(2H)-quinolineethanol as potent and orally active cholesteryl ester transfer protein inhibitor” (J Med Chem, 2009).

Data set [1] deals with Hamster. The experiment in a line: Increase in HDLC level in high-fat fed hamster model at 30 mg/kg, po for 5 days measured after 2 hrs of last dose. In kind it is functional, Cricetinae.
Data set [2] deals with Cynomolgus monkey. Nature of the data set: Ex vivo inhibition of CETP in po dosed normal chow diet-fed cynomolgus monkey by Roar assay. In kind it is functional, organism-based. Particulars: Macaca fascicularis.
A short description of data set [3]: Inhibition of CETP-mediated transfer of cholesteryl ester to LDL/VLDL in monkey plasma by Roar assay. In kind it is cell-free. Conditions: Macaca mulatta.
In data set [4] the test system is Mus musculus. Nature of the data set: Increase in HDLC level in normal chow diet-fed human CETP transgenic mouse model at 10 mg/kg, po for 5 days measured after 2 hrs of last dose. The format is functional.
The target of data set [5] is T1, Phosphatidylcholine-sterol acyltransferase (Homo sapiens) (UniProt P04180).
T1 sequence (whole entry): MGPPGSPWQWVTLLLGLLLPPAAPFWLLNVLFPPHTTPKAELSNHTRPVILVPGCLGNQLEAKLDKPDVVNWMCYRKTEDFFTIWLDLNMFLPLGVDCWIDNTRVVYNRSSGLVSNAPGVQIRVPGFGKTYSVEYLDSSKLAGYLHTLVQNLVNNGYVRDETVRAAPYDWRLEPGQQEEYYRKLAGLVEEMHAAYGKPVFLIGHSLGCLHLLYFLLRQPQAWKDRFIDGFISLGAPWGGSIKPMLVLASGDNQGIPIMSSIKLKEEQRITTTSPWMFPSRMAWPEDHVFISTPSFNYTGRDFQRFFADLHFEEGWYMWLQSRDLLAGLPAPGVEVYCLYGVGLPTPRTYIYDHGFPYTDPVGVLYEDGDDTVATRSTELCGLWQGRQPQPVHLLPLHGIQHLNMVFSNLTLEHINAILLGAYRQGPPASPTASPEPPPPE
Nature of the data set: Inhibition of LCAT activity in human plasma assessed as change in cholesteryl ester/free cholesterol ratio by cell based assay.

Data set [6] can be described thus: Oral bioavailability in monkey at 10 mg/kg. Conditions: rhesus monkey, in vivo. The format is ADME, organism-based, Macaca mulatta.
Data set [7] is described as follows: Oral bioavailability in dog at 10 mg/kg. The format is ADME, organism-based, Canis lupus familiaris. Conditions: in vivo.
Data set [8] deals with Cynomolgus monkey. Nature of the data set: Increase in HDLC level in normal chow diet-fed cynomolgus monkey at 3 mg/kg, po for 5 days measured after 10 hrs of last dose. The format is functional, Macaca fascicularis.
Data set [9] is described as follows: Clearance in rat at 2 to 3 mg/kg, iv and 10 mg/kg, po. The format is ADME, organism-based. Conditions: in vivo.
Data set [10] deals with Hamster. The experiment in a line: Increase in HDLC level in high-fat fed hamster model at 10 mg/kg, po for 5 days measured after 2 hrs of last dose. The format is functional, Cricetinae.
Data set [11] can be described thus: Inhibition of CETP-mediated transfer of cholesteryl ester to LDL/VLDL in hamster plasma by Roar assay. In kind it is cell-free. Particulars: Cricetinae.
The subject of data set [12] is Cynomolgus monkey. The experiment in a line: Ex vivo inhibition of CETP in normal chow diet-fed cynomolgus monkey at 3 mg/kg, po for 5 days by Roar assay. The format is functional. Particulars: Macaca fascicularis, 120 h.
For data set [13], the target named is T2, Cholesteryl ester transfer protein (Homo sapiens, UniProt P11597).
T2 sequence (P11597 whole entry): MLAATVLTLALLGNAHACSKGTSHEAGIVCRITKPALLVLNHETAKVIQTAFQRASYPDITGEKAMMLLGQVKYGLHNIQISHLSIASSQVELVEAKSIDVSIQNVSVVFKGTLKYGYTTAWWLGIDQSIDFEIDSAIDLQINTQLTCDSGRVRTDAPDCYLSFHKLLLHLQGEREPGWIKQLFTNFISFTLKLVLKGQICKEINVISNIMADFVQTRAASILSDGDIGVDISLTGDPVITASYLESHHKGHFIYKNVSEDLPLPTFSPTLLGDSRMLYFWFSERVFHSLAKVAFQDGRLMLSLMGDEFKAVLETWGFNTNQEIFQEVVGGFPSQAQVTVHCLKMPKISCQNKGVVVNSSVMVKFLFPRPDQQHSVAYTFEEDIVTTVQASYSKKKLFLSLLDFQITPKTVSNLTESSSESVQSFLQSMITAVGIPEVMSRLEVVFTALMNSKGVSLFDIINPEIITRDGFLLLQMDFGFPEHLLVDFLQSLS
The experiment in a line: Inhibition of CETP-mediated transfer of cholesteryl ester to LDL/VLDL in human plasma by Roar assay. In kind it is cell-free.

The subject of data set [14] is Cynomolgus monkey. Nature of the data set: Increase in HDLC level in normal chow diet-fed cynomolgus monkey at 30 mg/kg, po for 5 days measured after 10 hrs of last dose. The format is functional, Macaca fascicularis.
Data set [15] is described as follows: Oral bioavailability in rat at 10 mg/kg. Particulars: in vivo. In kind it is ADME, organism-based.
For data set [16], the system named is Mus musculus. The experiment in a line: Increase in HDLC level in normal chow diet-fed human CETP transgenic mouse model at 30 mg/kg, po for 5 days measured after 2 hrs of last dose. The format is functional.
Data set [17] has as its target T3, Endothelial lipase (Homo sapiens) (UniProt Q9Y5X9).
T3 sequence (whole entry): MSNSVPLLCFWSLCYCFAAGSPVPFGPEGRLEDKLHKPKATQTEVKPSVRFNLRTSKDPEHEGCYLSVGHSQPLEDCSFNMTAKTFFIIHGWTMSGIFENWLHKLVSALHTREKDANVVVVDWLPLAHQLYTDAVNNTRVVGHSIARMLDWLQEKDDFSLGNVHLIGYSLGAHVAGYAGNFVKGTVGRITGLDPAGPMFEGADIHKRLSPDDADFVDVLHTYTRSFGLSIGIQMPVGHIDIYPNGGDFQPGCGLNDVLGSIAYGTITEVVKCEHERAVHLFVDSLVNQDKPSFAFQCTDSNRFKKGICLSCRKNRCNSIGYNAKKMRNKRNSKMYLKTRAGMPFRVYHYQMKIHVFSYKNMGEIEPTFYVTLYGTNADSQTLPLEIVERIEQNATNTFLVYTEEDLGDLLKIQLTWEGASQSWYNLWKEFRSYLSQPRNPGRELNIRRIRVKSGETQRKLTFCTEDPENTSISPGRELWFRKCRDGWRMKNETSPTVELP
The experiment in a line: Inhibition of endothelial lipase by cell based assay.

For data set [18], the target named is T4, Hepatic triacylglycerol lipase (Homo sapiens) (UniProt P11150).
T4 sequence (whole entry): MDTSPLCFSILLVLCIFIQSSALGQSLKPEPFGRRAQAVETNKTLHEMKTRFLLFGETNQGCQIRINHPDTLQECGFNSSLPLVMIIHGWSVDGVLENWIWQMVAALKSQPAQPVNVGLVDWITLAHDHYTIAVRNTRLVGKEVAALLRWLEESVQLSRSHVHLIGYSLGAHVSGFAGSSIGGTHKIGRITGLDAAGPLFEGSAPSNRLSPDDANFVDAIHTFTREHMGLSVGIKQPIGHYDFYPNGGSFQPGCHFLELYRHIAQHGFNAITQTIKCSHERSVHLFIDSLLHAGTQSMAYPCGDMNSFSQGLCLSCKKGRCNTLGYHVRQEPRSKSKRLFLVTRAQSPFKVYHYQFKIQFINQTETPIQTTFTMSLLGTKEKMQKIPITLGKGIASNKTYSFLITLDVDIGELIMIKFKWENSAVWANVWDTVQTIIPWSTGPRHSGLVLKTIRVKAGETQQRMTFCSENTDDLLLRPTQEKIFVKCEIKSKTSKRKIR
Nature of the data set: Inhibition of hepatic lipase activity assessed as release of free fatty acid from hydrolysis of VLDL by cell based assay.

A short description of data set [19]: Volume of distribution at steady state in rat at 2 to 3 mg/kg, iv and 10 mg/kg, po. Particulars: in vivo, read-out: Vdss. The format is ADME, organism-based.
Data set [20] can be described thus: Plasma concentration in normal chow diet-fed cynomolgus monkey at 3 mg/kg, po for 5 days. The arrangement: dose 3 mg/kg, route oral. The format is ADME, organism-based, Macaca fascicularis.

Activity calls are given as the source filed them. No cut-off for these calls is given here.

As a reminder, the IC50 is the concentration needed to halve the response being measured. The term bioavailability denotes the share of a dose that reaches the circulation, judged against a reference dose that is usually intravenous. As a reminder, the inhibition in vivo is the change of the read-out against control, counted positive when it falls. Consider `O[C@@H](CN1c2cccc(-c3cccc(OC(F)(F)F)c3)c2CC[C@@H]1c1cccc(OC(F)(F)C(F)F)c1)C(F)(F)F`, for which the Activity was 40% in the data set on Hamster [1]; “Dose-dependent effect” in the data set with Cynomolgus monkey [2]; 36% in the data set with Mus musculus [4]; 4% with Cynomolgus monkey [8]; 36% in the data set with Hamster [10]; 32% in the data set on Cynomolgus monkey [14]. The molecule also registered an Activity with Mus musculus [16] of 25%. The concentration for half-maximal inhibition (IC50) was 1400 nM in [3], 100 nM in data set [11] and 1200 nM in data set [13]. Moreover, the outcome in data set [5], in data set [17] and in data set [18] was inactive. For the same molecule, the values for the bioavailability in [6], in [7] and in data set [15] were 27%, 5% and 31%, respectively. Moreover, in data set [9], the clearance stood at 1.8 mL/min/kg. Further, the inhibition in vivo at 3 mg/kg with Cynomolgus monkey [12] stood at 11%. Moreover, in data set [19], the Vd worked out at 0.36 L/kg. The same molecule showed a concentration at 120 h in data set [20] of 400 nM.
